PMC7705960, “Discovery of a Beetroot Protease Inhibitor to Identify and Classify Plant-Derived Cystine Knot Peptides” (Journal of Natural Products, 2020)
Values joined by “and” are separate entries in the source; they are usually repeats but may differ in a detail not shown here. Equal values may be shown once. Read-outs that look alike come from different tables or passages of the source. Values belong to the molecule of their own block, whether it stands above or below them. Positions of bridges follow the written chain, without caps; N, C: chain ends. Residues, ends and D or L forms follow the SMILES beside them.

Tests used:
[1] = biological target: T1, Bovine β-trypsin (Bos taurus, UniProt P00760); assay: Trypsin inhibition assay (colorimetric, benzoylarginine-4-nitroanilide); type: biochemical
T1 sequence (P00760 24-246): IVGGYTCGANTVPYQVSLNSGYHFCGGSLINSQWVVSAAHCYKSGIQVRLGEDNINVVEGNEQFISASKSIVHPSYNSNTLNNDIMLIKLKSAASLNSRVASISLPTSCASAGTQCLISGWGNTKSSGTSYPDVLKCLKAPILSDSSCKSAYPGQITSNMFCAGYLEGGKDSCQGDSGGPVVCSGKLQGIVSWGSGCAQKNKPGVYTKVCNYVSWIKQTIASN
Procedure: Based on the classification of bevuTI-I as putative trypsin inhibitor of the M. jalapa trypsin inhibitor family, enzymatic inhibition assays were performed.[33] Bovine β-trypsin and bevuTI-I were used in a colorimetric trypsin inhibition assay to measure concentration-dependent inhibition.
The trypsin inhibition assay was performed in 96-well microtiter plates. To 140 μL of a 20 mM Tris-HCl buffer (pH 8.0) was added 20 μL of inhibitor (dissolved in buffer)/buffer (negative control). Afterward, 20 μL of bovine trypsin (0.125 mg/mL, Sigma-Aldrich) was added, and the plate was incubated for 10 min at 22 °C. A volume of 20 μL of benzoylarginine-4-nitroanilide hydroxychloride (Bachem, Bubendorf, Switzerland) dissolved in 20% DMSO at a concentration of 900 μM was added automatically with the dispenser of the Synergy H4 Hybrid reader (BioTek, VM, USA). The rate of enzymatic reaction with different concentrations of inhibitor was measured for 1 h every 5 min at a wavelength of 410 nm. For calculations, the linear portion of data, corresponding to the initial rate of reaction, was used. The highest rate was set to 100% activity. A nonlinear regression (log inhibitor vs normalized response) was performed with GraphPad Prism version 8.0.0 for Windows (GraphPad Software, CA, USA). The top and bottom parameters were set to 100% and 0%, respectively.

[2] = biological target: T2, human POP (Homo sapiens, UniProt P48147); assay: Prolyl oligopeptidase (POP) inhibition assay (fluorescence, Z-Gly-Pro-AMC); type: biochemical; conditions: synthetic bevuTI-I; recombinant human POP 50 ng, Z-Gly-Pro-AMC 45 μM, 20 mM HEPES pH 7.4, 150 mM NaCl, 1 mM EDTA, 0.5 mM DTT, ex 360/em 450 nm; mean ± SD of three biological replicates
T2 construct: The full-length cDNA was cloned into the BamHI and EcoRI cloning sites of the commercially available expression plasmid pGEX-6P1; GST (from pGEX-6P1) (N, cleaved yes); made in house; host or cells: E. coli BL21
T2 sequence (P48147 1-710): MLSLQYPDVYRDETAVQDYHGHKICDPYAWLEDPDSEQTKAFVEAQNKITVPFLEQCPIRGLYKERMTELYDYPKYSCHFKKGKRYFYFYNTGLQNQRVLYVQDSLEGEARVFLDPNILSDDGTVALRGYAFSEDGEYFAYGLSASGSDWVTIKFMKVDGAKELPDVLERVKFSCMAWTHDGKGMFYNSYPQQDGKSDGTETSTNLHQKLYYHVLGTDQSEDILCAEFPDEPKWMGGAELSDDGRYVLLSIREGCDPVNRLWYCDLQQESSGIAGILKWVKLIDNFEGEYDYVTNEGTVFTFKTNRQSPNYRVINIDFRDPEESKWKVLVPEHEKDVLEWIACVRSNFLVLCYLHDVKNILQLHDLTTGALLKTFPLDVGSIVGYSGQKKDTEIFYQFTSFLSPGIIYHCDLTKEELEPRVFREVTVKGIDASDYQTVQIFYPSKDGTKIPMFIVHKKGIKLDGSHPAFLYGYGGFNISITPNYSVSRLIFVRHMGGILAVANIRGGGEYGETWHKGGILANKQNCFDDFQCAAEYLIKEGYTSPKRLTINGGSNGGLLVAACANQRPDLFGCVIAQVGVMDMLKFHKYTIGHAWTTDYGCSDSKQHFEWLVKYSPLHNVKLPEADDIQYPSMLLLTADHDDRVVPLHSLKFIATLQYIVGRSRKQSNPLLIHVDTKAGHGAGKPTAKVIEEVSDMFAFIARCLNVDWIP
Excerpt: As it was previously reported, plant cystine knot peptides belonging to the cyclotide family have the ability to inhibit human prolyl endopeptidase.[33] Thus, we were interested whether the bevuTI-I was also able to inhibit this enzyme. Like psysol-2, bevuTI-I has three proline residues and presumably the same cysteine connectivity.
Recombinant human POP (NM_002726.4) was produced in E. coli BL21 (New England Biolabs, MA, USA). The full-length cDNA was cloned into the BamHI and EcoRI cloning sites of the commercially available expression plasmid pGEX-6P1 by a customized manufacturer service from GenScript (Leiden, The Netherlands). […] The protein concentration of the eluate was determined by the bicinchoninic acid assay (ThermoFisher Scientific), and aliquots of stock protease in storage buffer (including 20% glycerol) were kept at −80 °C. […] Enzyme activity was measured by fluorescence signal as a result of free fluorophore from the Z-Gly-Pro-AMC substrate with an excitation of 360 ± 20 nm and emission of 450 ± 20 nm. Kinetic inhibition data were recorded in 5 min intervals, and the amount of inhibition was calculated from the steepness of the linear initial velocity. […] Concentration–response experiments were evaluated with a fitted nonlinear regression function in GraphPad Prism.

Molecule: CC[C@H](C)[C@@H]1NC(=O)[C@H](CCCNC(=N)N)NC(=O)[C@H](CC(C)C)NC(=O)[C@H](Cc2c[nH]c3ccccc23)NC(=O)[C@H](CCC(N)=O)NC(=O)[C@H](Cc2c[nH]cn2)NC(=O)[C@@H]2CCCN2C(=O)[C@H](C(C)C)NC(=O)[C@@H]2CSSC[C@@H]3NC(=O)[C@H]([C@@H](C)CC)NC(=O)[C@H]([C@@H](C)O)NC(=O)CNC(=O)[C@H](CO)NC(=O)[C@@H]4CCCN4C(=O)[C@H]([C@@H](C)O)NC(=O)[C@@H](N)CSSC[C@H](NC(=O)[C@H](CSSC[C@@H](C(=O)N[C@@H](C)C(=O)O)NC(=O)[C@H](C(C)C)NC(=O)[C@H](Cc4ccccc4)NC1=O)NC(=O)[C@H](CCC(N)=O)NC(=O)[C@H](CCC(=O)O)NC(=O)[C@@H]1CCCN1C(=O)[C@H](C)NC(=O)[C@H](CCC(=O)O)NC(=O)[C@@H]1CCCN1C(=O)[C@H](CO)NC3=O)C(=O)N[C@@H](CO)C(=O)N[C@@H](CC(N)=O)C(=O)N[C@@H](CO)C(=O)N2 [bevuTI-I, Beta vulgaris trypsin inhibitor I] (H-CTPSGTICSPEAPEQCCSNSCVPHQWLRIFVCA-OH; disulfide 1-17, 8-21, 16-32)
IC50 [1]: 471 nM and 568 nM
IC50 [2]: 11000 ± 5300 nM

IC50 ([1]; control inhibitor (Glycine max Kunitz-type), bovine trypsin, 20 mM Tris-HCl pH 8.0, 10 min pre-incubation at 22 °C, 410 nm, read-out: IC50, trypsin inhibition): 198 ± 72 nM
B1: Kunitz-type soybean trypsin inhibitor: well-characterized Kunitz-type soybean trypsin inhibitor, used as control (protein, UniProt P01070 25-205, looked up)
Trypsin inhibitor A: DFVLDNEGNPLENGGTYYILSDITAFGGIRAAPTGNERCPLTVVQSRNELDKGIGTIISSPYRIRFIAEGHPLSLKFDSFAVIMLCVGIPTEWSVVEDLPEGPAVKIGENKDAMDGWFRLERVSDDEFNNYKLVFCPQQAEDDKCGDIGISIDHDDGTRRLVVSKNKPLVVQFQKLDKESL
